Assay [1] deals with COLO205 colon adenocarcinoma cells (B-Raf V600E mutation). As to the kind of experiment: COLO205 cell growth inhibition assay (ATPlite). The assay is classed as cell-based, human. On the procedure:
Compounds are assessed in a variety of cell based assays. For example human cell lines with B-RafV600E mutation (A375 melanoma, SKMEL3 melanoma, and COLO205 colon adenocarcinoma), as well as tumorigenic cell lines with wild-type B-RAF (SW620 colon adenocarcinoma) or with Ras mutations (SKMEL2 melanoma and IPC298 melanoma).
On day 1, cells are counted, then centrifuged in a conical tube for 5 minutes at 1000 rpm.
On day 2, compound at a maximum concentration of 5 mM is serially diluted 1:3 (e.g. 10 μL with 30 μL dimethyl sulfoxide) for a total of 8 point titration with DMSO as a control. A 1 μL aliquot of each dilution point and control is added to 249 μL growth media and 50 μL is added to a well containing cells, providing 10 μM compound at the maximum concentration point. The cells are incubated for 3 days at 37° C. in 5% CO2.
ATPlite is added 25 μL to each well, shake for 2 minutes, and the cells are incubated at room temperature for 10 minutes, then luminescence is read on Safire reader. The measured luminescence correlates directly with cell number, such that the reading as a function of compound concentration is used to determine the IC50 value.
In general terms: ATP-based viability assays read luminescence as a measure of living cells.

In assay [2] the test system is A375 melanoma cells (B-Raf V600E mutation). Kind of assay: A375 (A375_P-ERK) cell activity / cell growth inhibition assay. The note with it: A375 cells (text: A375_P-ERK). The assay is classed as cell-based, human.
A further assay has as its target B-Raf V600E (Homo sapiens (Human), UniProt P15056, V600E). As to the kind of experiment: B-Raf V600E kinase activity biochemical assay (AlphaScreen, biotin-MEK1 substrate). The note with it: 100 μM ATP. On the procedure:
Assays for biochemical and cell based activity are known in the art, for example, as described in PCT publication WO 2007/002433, the disclosure of which is hereby incorporated by reference as it relates to such assays. For example, the biochemical activity IC50 values are determined with respect to inhibition of B-Raf V600E kinase activity or p-Erk kinase activity, where inhibition of phosphorylation of a peptide substrate is measured as a function of compound concentration. Compounds to be tested are diluted in dimethyl sulfoxide to a concentration of 0.1 mM. These are serially diluted 15 μL into 30 μL of dimethyl sulfoxide seven times in 96 well plates for a total of 8 dilution points, and for each dilution point 1 μL is added to a well of an assay plate. Plates are prepared such that each well in a 384 well plate contains 1 μL of compound in 10 μL volume with 0.1 ng Raf enzyme (i.e. any of B-Raf, c-Raf-1 or B-Raf V600E, Upstate Biotechnology or preparead by methods known to one of skill in the art), 50 mM HEPES, pH 7.0, 50 mM NaCl, 2 mM MgCl2, 1 mM MnCl2, 0.01% Tween-20, 1 mM DTT, and 100 nM biotin-MEK1 as substrate. The reaction is started with addition of 10 μL of 200 μM ATP (i.e. final 100 μM ATP). […] The plates are incubated for 3 hours at room temperature and read on Envision reader (Perkin Elmer). […]
A general note: In Alpha technology, singlet oxygen from a donor bead excites a nearby acceptor bead.

For assay [3], the system named is IPC-298 cells, phosphorylated ERK. As to the kind of experiment: IPC-298_P-ERK cell activation assay (phosphorylated ERK, AlphaScreen). The note with it: P-ERK activation, one hour treatment. The assay is classed as cell-based, human. How it is done:
B9 is a squamous cell carcinoma cell line expressing activated HRAS that was isolated from a DMBA/TPA-induced mouse model of skin carcinogenesis (Stoler, et al. The Journal of Cell Biology, 1993, 122(5), 1103-17). IPC-298 is a human melanoma cell line that expresses activated NRAS (Aubert, et al. International Journal of Cancer, 1993, 54(5), 784-92). To determine whether compounds induce phosphorylated ERK and MEK, cells are plated in a 96-well dish and treated with an 8-point titration of compound for one hour at 37° C. The media is then removed and the cells are incubated with lysis buffer containing protease and phosphatase inhibitors. Phosphorylated ERK and MEK in the resulting lysates is detected using AlphaScreen™ technology. To detect phosphorylated ERK, cell lysates are incubated with streptavidin-coated donor beads, anti-mouse IgG acceptor beads, a biotinylated anti-ERK1/2 rabbit antibody, and a mouse antibody that recognizes ERK1/2 only when it is phosphorylated on Thr202 and Tyr204. […] When ERK is phosphorylated, both antibodies can bind the same protein, bringing the donor and acceptor beads into close proximity, producing a signal that can be measured at 580 nm. MEK phosphorylation is detected using a similar approach, only with antibodies directed against total MEK1/2 and MEK1/2 that is phosphorylated at Ser217 and Ser221.

[4] abbreviates: Homo sapiens, COLO 205, compounds known in the art.
Where [5] appears, read: Homo sapiens, A-375, compounds known in the art.

Where two headings read alike, the source gives them in different places. Where only a bound is given, the exact number is not on record here.

A word on the IC50: it is the concentration that inhibits the measured activity by half. A lower IC50 goes with greater potency. A word on the EC50: it is the concentration giving half of the maximal effect. Read a high EC50 as a less potent agent.

Sequence of B-Raf V600E (P15056 whole entry V600E): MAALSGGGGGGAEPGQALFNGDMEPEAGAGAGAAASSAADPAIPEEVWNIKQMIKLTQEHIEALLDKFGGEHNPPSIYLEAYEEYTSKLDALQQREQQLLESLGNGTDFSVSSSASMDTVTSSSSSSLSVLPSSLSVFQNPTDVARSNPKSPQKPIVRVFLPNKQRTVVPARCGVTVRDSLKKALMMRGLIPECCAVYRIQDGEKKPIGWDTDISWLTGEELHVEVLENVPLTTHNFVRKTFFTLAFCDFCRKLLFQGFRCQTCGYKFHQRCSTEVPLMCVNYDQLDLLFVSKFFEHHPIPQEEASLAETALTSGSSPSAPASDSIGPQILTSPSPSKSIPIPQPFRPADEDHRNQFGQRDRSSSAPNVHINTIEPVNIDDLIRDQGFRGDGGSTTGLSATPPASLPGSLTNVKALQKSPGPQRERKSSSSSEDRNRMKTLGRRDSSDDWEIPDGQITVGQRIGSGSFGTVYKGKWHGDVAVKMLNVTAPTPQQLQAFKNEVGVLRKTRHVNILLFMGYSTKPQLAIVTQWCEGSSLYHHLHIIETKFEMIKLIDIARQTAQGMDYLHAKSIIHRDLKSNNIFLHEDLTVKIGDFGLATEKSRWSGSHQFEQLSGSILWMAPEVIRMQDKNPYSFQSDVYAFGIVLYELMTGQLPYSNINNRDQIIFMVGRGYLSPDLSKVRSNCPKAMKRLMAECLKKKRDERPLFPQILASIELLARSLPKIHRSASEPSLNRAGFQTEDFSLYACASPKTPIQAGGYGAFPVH

Take `COc1ncc(-c2cnc3[nH]cc(C(=O)c4c(F)ccc(NS(=O)(=O)c5cc(F)ccc5F)c4F)c3c2)cn1`: the IC50 is under 1 µM in assay [1] (setting [4]) and under 0.5 µM in assay [2] (setting [5]).
The corresponding values for `COc1ncc(-c2cnc3[nH]cc(C(=O)c4c(F)ccc(NS(=O)(=O)c5ccccc5F)c4F)c3c2)cn1` are under 1 µM and under 0.5 µM.
The like results for `CCCS(=O)(=O)Nc1ccc(F)c(C(=O)c2c[nH]c3ncc(Cl)cc23)c1F` were, in that order, under 1 µM and under 0.8 µM.
In the case of `CCN(C)S(=O)(=O)Nc1ccc(F)c(C(=O)c2c[nH]c3ncc(-c4ccc(Cl)cc4)cc23)c1F` [P-0013], the IC50 in assay [2] (Homo sapiens, A-375) was under 1 µM; against B-Raf V600E it was under 0.1 µM.
As for `O=C(c1c(F)ccc(NS(=O)(=O)N2CCCC2)c1F)c1c[nH]c2ncc(I)cc12` [P-0024], the IC50 is over 1 µM in assay [1] and under 1 µM in assay [2]. Also, the EC50 in assay [3] is over 10 µM.
For `CN(C)S(=O)(=O)Nc1cccc(C(=O)c2c[nH]c3ncc(-c4ccc(C#N)cc4)cc23)c1F` [P-0027], the IC50 in assay [1] (Homo sapiens, COLO 205) is under 1 µM; in assay [2] (Homo sapiens, A-375), under 1 µM.
Take `O=C(c1c(F)ccc(NS(=O)(=O)N2CCC(F)C2)c1F)c1c[nH]c2ncc(-c3cnc(C4CC4)nc3)cc12` (stereo not drawn) [P-0339, N-[3-[5-(2-cyclopropylpyrimidin-5-yl)-1H-pyrrolo[2,3-b]pyridine-3-carbonyl]-2,4-difluoro-phenyl]-3-fluoro-pyrrolidine-1-sulfonamide]: the IC50 in assay [2] (Homo sapiens, A-375) was under 1 µM.
Still for that read-out and setting: then `CN(CC(F)(F)F)S(=O)(=O)Nc1ccc(F)c(C(=O)c2c[nH]c3ncc(-c4cnc(C5CC5)nc4)cc23)c1F` [P-0340, 5-(2-cyclopropylpyrimidin-5-yl)-3-[2,6-difluoro-3-[[methyl(2,2,2-trifluoroethyl)sulfamoyl]amino]benzoyl]-1H-pyrrolo[2,3-b]pyridine], with under 1 µM.
